In paper PMC7856178 (Archives of biochemistry and biophysics, 2020):
pKd: −log10 of the molar value. “And” between values parts separate entries of the source, which are not always exact repeats. Identical values can stand only once. Like-named read-outs stand apart in the source and are kept apart here.

Legend:
[1] = biological target: CYP2E1 (Homo sapiens, UniProt P05181); format: binding
[2] = biological target: T1, CYP3A4 (Homo sapiens, UniProt P08684); test: Fluorimetric assay of BQ debenzylation in intact and CYP2E1-enriched HLM
Target sequence in this assay (P08684 whole entry): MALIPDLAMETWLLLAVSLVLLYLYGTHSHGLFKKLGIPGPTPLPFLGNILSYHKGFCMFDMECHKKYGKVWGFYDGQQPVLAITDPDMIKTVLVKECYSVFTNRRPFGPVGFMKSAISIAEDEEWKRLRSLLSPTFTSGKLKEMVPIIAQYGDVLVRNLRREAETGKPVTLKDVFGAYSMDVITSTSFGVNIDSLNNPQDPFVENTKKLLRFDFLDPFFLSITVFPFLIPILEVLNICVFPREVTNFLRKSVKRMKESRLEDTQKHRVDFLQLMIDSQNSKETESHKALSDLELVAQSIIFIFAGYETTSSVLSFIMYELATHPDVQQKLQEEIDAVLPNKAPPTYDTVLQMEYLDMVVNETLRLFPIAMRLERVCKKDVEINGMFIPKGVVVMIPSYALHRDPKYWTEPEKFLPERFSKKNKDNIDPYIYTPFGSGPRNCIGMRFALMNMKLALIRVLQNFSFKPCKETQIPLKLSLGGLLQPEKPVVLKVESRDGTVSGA

[3] = biological target: T1, CYP3A4; format: binding; conditions: SS(3A4) in the presence of 25 μM ANF
Target sequence in this assay (P08684 2-503 limits assumed): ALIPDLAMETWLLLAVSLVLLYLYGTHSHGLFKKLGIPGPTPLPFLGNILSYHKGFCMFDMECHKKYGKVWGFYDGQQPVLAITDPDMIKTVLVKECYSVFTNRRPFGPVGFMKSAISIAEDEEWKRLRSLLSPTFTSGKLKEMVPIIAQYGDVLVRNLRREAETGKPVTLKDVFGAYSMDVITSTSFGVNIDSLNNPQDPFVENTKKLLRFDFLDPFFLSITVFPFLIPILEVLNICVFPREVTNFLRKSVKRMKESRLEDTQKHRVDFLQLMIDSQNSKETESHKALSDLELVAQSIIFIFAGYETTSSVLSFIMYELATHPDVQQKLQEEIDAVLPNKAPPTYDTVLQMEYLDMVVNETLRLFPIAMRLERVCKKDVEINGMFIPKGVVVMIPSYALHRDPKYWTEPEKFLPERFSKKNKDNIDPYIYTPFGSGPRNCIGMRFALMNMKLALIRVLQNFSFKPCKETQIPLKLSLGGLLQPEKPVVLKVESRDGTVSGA

[4] = system: CYP2C19; conditions: cited from earlier work
[5] = system: CYP2E1; conditions: cited from earlier work
[6] = system: CYP1A2; conditions: cited from earlier work
[7] = system: CYP3A5; conditions: cited from earlier work
[8] = biological target: T1, CYP3A4; test: Rate of midazolam hydroxylation by pooled HLM; conditions: 100 μM substrate; for Turnover rate (per metabolizing P450 enzyme): per CYP3A4
Target sequence in this assay (P08684 whole entry): as the sequence (P08684 whole entry) above

[9] = in vivo; cited from earlier work
[10] = system: CYP3A4; conditions: prolonged exposure; human hepatocytes; cited from earlier work
[11] = system: CYP3A4; conditions: prolonged exposure; HepG2 cells; cited from earlier work
[12] = 25 μM ANF, all four HLM samples

Question: With `O[C@@H](CS)[C@@H](O)CS` (racemic) [DTT, dithiothreitol] as the molecule, how does the pKd [1] read?
Answer: 1.98

Question: Which results are given for `O=c1cc(-c2ccccc2)oc2c1ccc1ccccc12` [ANF, 7,8-benzoflavone]?
Answer: Effect of ANF on Vmax of BQ metabolism ([2]; 25 μM ANF, HLM-A): no statistically significant effect; Effect of ANF on the maximal rate of BQ metabolism ([2]; 25 μM ANF, HLM-N1): increased the maximal rate of reaction almost two times; Effect of ANF on Vmax of BQ metabolism ([2]; 25 μM ANF, HLM-N2): no statistically significant effect; Effect of ANF on the maximal rate of BQ metabolism ([2]; 25 μM ANF, HLM-N3): over two-fold inhibition; Effect of ANF on S50 values of BQ [2, 12]: considerably decreased the S50 values; Effect of ANF on homotropic cooperativity observed with BQ [2, 12]: eliminated homotropic cooperativity; (Lipid/CYP2E1)50% ([3]; calculated from [CYP2E1]50%): 604 and 604 ± 62; FRET Efficiency ([3]; from Rmax by Eq. 4): 84 ± 20%

Question: Which Km [4] does the source give for `CN(C)CCC=C1c2ccccc2CCc2ccccc21` [Amitriptyline] here?
Answer: ~14 µM

Question: Which “Ability of CYP2E1 to metabolize BQ” value [5] does the source give for `c1ccc(COc2ccc3cccnc3c2)cc1` [BQ, 7-benzyloxyquinoline] here?
Answer: lacks any potential to metabolize this substrate

Question: And the “Turnover number with BQ, times lower than that of CYP3A4” value [6]?
Answer: 8.5 times

Question: What about the “N (Hill coefficient)” value ([2]; HLM-A+2E1 (1:1 CYP2E1-enriched), +25 μM ANF) of the same molecule?
Answer: 0.85 ± 0.26 (0.03)

Question: What about the “N (Hill coefficient)” value ([2]; HLM-A+2E1 (1:1 CYP2E1-enriched), no effector) of the same molecule?
Answer: 1.47 ± 0.30 (0.30)

Question: And the “N (Hill coefficient)” value ([2]; HLM-A, +25 μM ANF)?
Answer: 0.99 ± 0.20 (0.03)

Question: What about the “N (Hill coefficient)” value ([2]; HLM-A, no effector) of the same molecule?
Answer: 1.02 ± 0.15

Question: What about the “N (Hill coefficient)” value ([2]; HLM-N1+2E1 (1:1 CYP2E1-enriched), +25 μM ANF) of the same molecule?
Answer: 0.87 ± 0.16 (0.02)

Question: What about the “N (Hill coefficient)” value ([2]; HLM-N1+2E1 (1:1 CYP2E1-enriched), no effector) of the same molecule?
Answer: 1.26 ± 0.12 (0.01)

Question: And the “N (Hill coefficient)” value ([2]; HLM-N1, +25 μM ANF)?
Answer: 0.83 ± 0.12 (<10^−2)

Question: And the “N (Hill coefficient)” value ([2]; HLM-N1, no effector)?
Answer: 2.24 ± 0.37

Question: And the “N (Hill coefficient)” value ([2]; HLM-N2+2E1 (1:1 CYP2E1-enriched), +25 μM ANF)?
Answer: 0.86 ± 0.08 (<10^−2)

Question: What about the “N (Hill coefficient)” value ([2]; HLM-N2+2E1 (1:1 CYP2E1-enriched), no effector) of the same molecule?
Answer: 1.13 ± 0.03 (<10^−6)

Question: And the “N (Hill coefficient)” value ([2]; HLM-N2, +25 μM ANF)?
Answer: 1.02 ± 0.37 (0.01)

Question: What about the “N (Hill coefficient)” value ([2]; HLM-N2, no effector) of the same molecule?
Answer: 1.92 ± 0.02

Question: And the “Vmax, times lower than that of HLM-A” value ([2]; HLM-N2, no effector)?
Answer: 2.2 times

Question: And the “N (Hill coefficient)” value ([2]; HLM-N3+2E1 (1:1 CYP2E1-enriched), +25 μM ANF)?
Answer: 1.02 ± 0.24 (0.07)

Question: What about the “N (Hill coefficient)” value ([2]; HLM-N3+2E1 (1:1 CYP2E1-enriched), no effector) of the same molecule?
Answer: 1.28 ± 0.09 (0.01)

Question: What about the “N (Hill coefficient)” value ([2]; HLM-N3, +25 μM ANF) of the same molecule?
Answer: 1.22 ± 0.30 (0.03)

Question: And the “N (Hill coefficient)” value ([2]; HLM-N3, no effector)?
Answer: 2.09 ± 0.44

Question: And the “Vmax, times lower than that of HLM-A” value ([2]; HLM-N3, no effector)?
Answer: 1.4 times

Question: What about the Hill coefficient ([2]; all three samples of HLM-N, no effector) of the same molecule?
Answer: 1.9 – 2.2

Question: What about the “Vmax of HLM-A relative to HLM-N1” value ([2]; no effector) of the same molecule?
Answer: over six times higher

Question: And the “Turnover number with BQ, times lower than that of CYP3A4” value [7]?
Answer: 4.3 times

Question: What does the source list for `Cc1ncc2n1-c1ccc(Cl)cc1C(c1ccccc1F)=NC2` [Midazolam]?
Answer: Turnover rate (per CPR) ([8]; HLM-A): 11.2 ± 5.3 min⁻¹; Turnover rate (per metabolizing P450 enzyme) ([8]; HLM-A): 6.8 ± 3.2 min⁻¹; Turnover rate (per CPR) ([8]; HLM-N2): 7.3 ± 2.1 min⁻¹; Turnover rate (per metabolizing P450 enzyme) ([8]; HLM-N2): 3.3 ± 0.9 min⁻¹; Turnover rate (per CPR) ([8]; HLM-N3): 8.2 ± 4.0 min⁻¹; Turnover rate (per metabolizing P450 enzyme) ([8]; HLM-N3): 3.1 ± 1.5 min⁻¹

Question: Which “Rate of metabolism under the influence of chronic alcohol exposure” value [9] does the source give for `C[C@H]1c2cccc(O)c2C(O)=C2C(=O)[C@]3(O)C(O)=C(C(N)=O)C(=O)[C@@H](N(C)C)[C@@H]3[C@@H](O)[C@@H]21` [doxycyclin] here?
Answer: increased rate of metabolism

Question: Which “Concentration of ethanol giving a noticeable elevation in the CYP3A4 content” value [10] does the source give for `CCO` [ethanol] here?
Answer: ≥ 50000 µM

Question: And the “Concentration of ethanol giving a noticeable elevation in the CYP3A4 content” value [11]?
Answer: ≥ 50000 µM
